The source of these data is article PMC4588179, “Antifungal Activity of 14-Helical β-Peptides against Planktonic Cells and Biofilms of Candida Species” (Pharmaceuticals, 2015).

Data set [1] can be described thus: RP-HPLC retention time as measure of β-peptide hydrophobicity. Format: physicochemical. Conditions: chromatographic, analytical RP-HPLC, C18 (Waters X-bridge, 4.6 mm × 250 mm), gradient 20%–80% CH3CN in water with 0.1% TFA over 5–35 min, 1 mL/minute, 0.5 to 1 mg/mL, 50 µL injected; mean ± standard deviation of triplicate measurements. The source says: β-peptides were produced by microwave-assisted Fmoc synthesis at 20−40 μmol scales and purified by RP-HPLC using a C18 column. MALDI mass spectrometry was used to validate the mass of each peptide as described previously. Retention times determined by C18 RP-HPLC were used as a measure of the relative hydrophobicity of the β-peptides (Table 1). This approach has been used previously by our group and others to assess the relative hydrophobicity of different peptide structures. Preliminary antifungal activity and mammalian toxicity evaluation were reported previously for β-peptides 1–16 as planktonic MIC against C. albicans and percent hemolysis at the MIC, respectively.
Hydrophobicity of 14-helical β-peptides was characterized by measuring retention times with an analytical RP-HPLC using a C18 column (Waters, X-bridge, column dimensions 4.6 mm × 250 mm, Milford, MA, USA). The β-peptide solutions (0.5 to 1 mg/mL, 50 µL) were injected into the HPLC at a flow rate of 1 mL/minute. Retention time was characterized in triplicate with a gradient of 20%–80% CH3CN in water containing 0.1% TFA over 5–35 min.

Data set [2] has as its system C. albicans SC5314 biofilm formation. Put plainly: Biofilm formation in the presence of β-peptides, XTT. Format: cell-based, Candida albicans. The note with it: 10^6 cells/mL incubated with 2-fold dilutions of β-peptide, 37 °C, 48 h, washed, 10% or less metabolic activity vs untreated control. The procedure:
C. albicans, C. glabrata, C. tropicalis, and C. parapsilosis biofilm formation in the presence of β-peptide was evaluated using a procedure used previously. Briefly, 100 μL of overnight cultures of C. albicans SC5314, C. glabrata, C. parapsilosis, and C. tropicalis adjusted to 2 × 10^6 cells/mL was added to 100 μL of two-fold serially diluted β-peptide in a 96-well plates. Peptide-free controls and cell and peptide-free controls were included for each peptide assayed and the plates were incubated at 37 °C for 48 h. After 48 h, biofilms were washed with PBS to remove non-adherent cells and the metabolic activity of biofilms grown in the presence of β-peptide was determined using XTT.
For evaluation of metabolic activities of planktonic cells and biofilms in susceptibility testing in 96-well plates, 100 μL of XTT solution was added to every well and plates were incubated at 37 °C in the dark for 1.5 h for C. albicans and 2.5 h for C. glabrata, C. parapsilosis and C. tropicalis. At the end of the incubation, 75 μL of supernatant from wells were transferred to a new plate and absorbance at 490 nm was measured. The percent metabolic activity was calculated as: Metabolic Activity (%)= (A490− A490background)/A490cell control− A490background ×100 where A490 , A490cell control , and A490background are the average absorbance values of wells containing a specific concentration of β-peptide, cell control wells without β-peptide, and media only wells, respectively. Experiments were performed in triplicate and repeated on at least two different days.
Background: Formazan colour is commonly taken as a measure of viable cells.

The test system of data set [3] is human red blood cells (hRBCs). As to the kind of experiment: Hemolysis of human red blood cells. Format: cell-based. The note with it: red cells of human. The procedure: Table S1. Hemolysis of β-peptide 1-16, concentration of β-peptid e needed for 50% lysis of human red blood cells (hRBCs)
Peptide # Peptide Concentration at 50% Hemolysis a (HC50, µg/mL) […]
a Hemolysis assays were perfor med as previously indicated in Lee, M.R. et al., ACS Chem. Biol. (2014). Briefly, equal volumes of 2-fold dilutions of β-peptides in tris-buffered saline (TBS) were incubated with hRBCs for an hour at 37 °C. Supernatants were transferred to a new plate and absorbance was measured at 405 nm.
% hemolysis was calculated relative to positive lysis control and the concentration of peptide needed for 50% hemolysis was recorded as HC50 for that peptide. Values reported are average measurements from three independent experiments of duplicates each and the error denoted is the standard deviation. Concentration dependent hemolysis graphs can be found in Lee, M.R. et al., ACS Chem. Biol. (2014).

Molecules are shown by their SMILES.

With `NCCCC[C@@H](CC(N)=O)NC(=O)C[C@H](Cc1ccccc1)NC(=O)[C@H]1CCCC[C@@H]1NC(=O)C[C@H](CCCCN)NC(=O)C[C@H](Cc1ccccc1)NC(=O)[C@H]1CCCC[C@@H]1NC(=O)C[C@H](CCCCN)NC(=O)C[C@H](Cc1ccccc1)NC(=O)[C@H]1CCCC[C@@H]1N` [Peptide 8], in data set [1], the “Hydrophobicity (HPLC Retention Time, min)” value (from here on “Hydrophobicity”) is 26.2 ± 0.2 min. For the same compound, the “MIC, Biofilm Formation (C. albicans)” value in data set [2] was found to be 8 µg/mL. Take `NCCCC[C@@H](CC(N)=O)NC(=O)C[C@H](Cc1ccccc1)NC(=O)[C@H]1CCCC[C@@H]1NC(=O)C[C@H](CCCCN)NC(=O)C[C@H](Cc1ccccc1)NC(=O)[C@H]1CCCC[C@@H]1NC(=O)C[C@H](CCCCN)NC(=O)C[C@H](Cc1ccccc1)NC(=O)[C@H]1CCCC[C@@H]1NC(=O)C[C@@H](N)Cc1ccc(O)cc1` [Peptide 16]: the “Hydrophobicity” value in data set [1] was determined as 27.4 ± 0.2 min. In addition, in data set [3], the “Peptide Concentration at 50% Hemolysis (HC50)” value was 3 ± 1 µg/mL. In the case of `NCCCC[C@@H](CC(N)=O)NC(=O)[C@H]1CCCC[C@@H]1NC(=O)[C@H]1CCCC[C@@H]1NC(=O)C[C@H](CCCCN)NC(=O)[C@H]1CCCC[C@@H]1NC(=O)[C@H]1CCCC[C@@H]1NC(=O)C[C@H](CCCCN)NC(=O)[C@H]1CCCC[C@@H]1NC(=O)[C@H]1CCCC[C@@H]1N` [Peptide 6], the “Hydrophobicity” value in data set [1] was determined as 23.1 ± 0.2 min. `CC(C)[C@@H](CC(=O)N[C@@H](CCCNC(=N)N)CC(=O)N[C@H]1CCCC[C@@H]1C(=O)N[C@H](CC(=O)N[C@@H](CCCNC(=N)N)CC(=O)N[C@H]1CCCC[C@@H]1C(=O)N[C@H](CC(=O)N[C@@H](CCCNC(=N)N)CC(N)=O)C(C)C)C(C)C)NC(=O)[C@H]1CCCC[C@@H]1NC(=O)C[C@@H](N)Cc1ccc(O)cc1` [Peptide 13]: in data set [1], the “Hydrophobicity” value is 26.5 ± 0.2 min. The “Peptide Concentration at 50% Hemolysis (HC50)” value in data set [3] is given as 11 ± 2 µg/mL. The like results for `CC[C@@H](CC(=O)N[C@@H](CCCNC(=N)N)CC(=O)N[C@H]1CCCC[C@@H]1C(=O)N[C@@H](CC)CC(=O)N[C@@H](CCCNC(=N)N)CC(=O)N[C@H]1CCCC[C@@H]1C(=O)N[C@@H](CC)CC(=O)N[C@@H](CCCNC(=N)N)CC(N)=O)NC(=O)[C@H]1CCCC[C@@H]1NC(=O)C[C@@H](N)Cc1ccc(O)cc1` [Peptide 11] were, in that order, 24.2 ± 0.1 min and 79 ± 8 µg/mL. The like results for `CC[C@@H](CC(=O)N[C@@H](CCCCN)CC(=O)N[C@H]1CCCC[C@@H]1C(=O)N[C@@H](CC)CC(=O)N[C@@H](CCCCN)CC(=O)N[C@H]1CCCC[C@@H]1C(=O)N[C@@H](CC)CC(=O)N[C@@H](CCCCN)CC(N)=O)NC(=O)[C@H]1CCCC[C@@H]1NC(=O)C[C@@H](N)Cc1ccc(O)cc1` [Peptide 10] were, in that order, 23.5 ± 0.1 min and 149 ± 20 µg/mL. In the case of `N=C(N)NCCC[C@@H](CC(N)=O)NC(=O)[C@H]1CCCC[C@@H]1NC(=O)[C@H]1CCCC[C@@H]1NC(=O)C[C@H](CCCNC(=N)N)NC(=O)[C@H]1CCCC[C@@H]1NC(=O)[C@H]1CCCC[C@@H]1NC(=O)C[C@H](CCCNC(=N)N)NC(=O)[C@H]1CCCC[C@@H]1NC(=O)[C@H]1CCCC[C@@H]1NC(=O)C[C@@H](N)Cc1ccc(O)cc1` [Peptide 15], in data set [1], the “Hydrophobicity” value turned out to be 24.6 ± 0.2 min. The “Peptide Concentration at 50% Hemolysis (HC50)” value in data set [3] was determined as 73 ± 40 µg/mL. Regarding `CC[C@@H](CC(=O)N[C@@H](CCCNC(=N)N)CC(N)=O)NC(=O)[C@H]1CCCC[C@@H]1NC(=O)C[C@H](CCCNC(=N)N)NC(=O)C[C@H](CC)NC(=O)[C@H]1CCCC[C@@H]1NC(=O)C[C@H](CCCNC(=N)N)NC(=O)C[C@H](CC)NC(=O)[C@H]1CCCC[C@@H]1N` [Peptide 3], the “Hydrophobicity” value in data set [1] is 23.2 ± 0.1 min. The “MIC, Biofilm Formation (C. albicans)” value in data set [2] was 32 µg/mL. On to `CC[C@@H](CC(=O)N[C@@H](CCCCN)CC(N)=O)NC(=O)[C@H]1CCCC[C@@H]1NC(=O)C[C@H](CCCCN)NC(=O)C[C@H](CC)NC(=O)[C@H]1CCCC[C@@H]1NC(=O)C[C@H](CCCCN)NC(=O)C[C@H](CC)NC(=O)[C@H]1CCCC[C@@H]1N` [Peptide 2], for which, in data set [1], the “Hydrophobicity” value is 22.5 ± 0.2 min. Also, the “MIC, Biofilm Formation (C. albicans)” value in data set [2] is 64 µg/mL.

With `NCCCC[C@@H](CC(N)=O)NC(=O)[C@H]1CCCC[C@@H]1NC(=O)[C@H]1CCCC[C@@H]1NC(=O)C[C@H](CCCCN)NC(=O)[C@H]1CCCC[C@@H]1NC(=O)[C@H]1CCCC[C@@H]1NC(=O)C[C@H](CCCCN)NC(=O)[C@H]1CCCC[C@@H]1NC(=O)[C@H]1CCCC[C@@H]1NC(=O)C[C@@H](N)Cc1ccc(O)cc1` [Peptide 14], the “Hydrophobicity” value in data set [1] was found to be 24.0 ± 0.2 min. Besides, the “Peptide Concentration at 50% Hemolysis (HC50)” value in data set [3] was found to be 106 ± 37 µg/mL. For the compound `CC(C)[C@@H](CC(=O)N[C@@H](CCCNC(=N)N)CC(N)=O)NC(=O)[C@H]1CCCC[C@@H]1NC(=O)C[C@H](CCCNC(=N)N)NC(=O)C[C@@H](NC(=O)[C@H]1CCCC[C@@H]1NC(=O)C[C@H](CCCNC(=N)N)NC(=O)C[C@@H](NC(=O)[C@H]1CCCC[C@@H]1N)C(C)C)C(C)C` [Peptide 5], the “Hydrophobicity” value in data set [1] is on record as 25.4 ± 0.1 min. Moreover, the “MIC, Biofilm Formation (C. albicans)” value in data set [2] came to 8 µg/mL. Regarding `CC(C)[C@@H](CC(=O)N[C@@H](CCCCN)CC(=O)N[C@H]1CCCC[C@@H]1C(=O)N[C@H](CC(=O)N[C@@H](CCCCN)CC(=O)N[C@H]1CCCC[C@@H]1C(=O)N[C@H](CC(=O)N[C@@H](CCCCN)CC(N)=O)C(C)C)C(C)C)NC(=O)[C@H]1CCCC[C@@H]1NC(=O)C[C@@H](N)Cc1ccc(O)cc1` [Peptide 12], the “Hydrophobicity” value in data set [1] was found to be 25.7 ± 0.1 min. In data set [3], the “Peptide Concentration at 50% Hemolysis (HC50)” value came out at 12 ± 6 µg/mL. On the same counts, the results for `C[C@@H](CC(=O)N[C@@H](CCCCN)CC(=O)N[C@H]1CCCC[C@@H]1C(=O)N[C@@H](C)CC(=O)N[C@@H](CCCCN)CC(=O)N[C@H]1CCCC[C@@H]1C(=O)N[C@@H](C)CC(=O)N[C@@H](CCCCN)CC(N)=O)NC(=O)[C@H]1CCCC[C@@H]1NC(=O)C[C@@H](N)Cc1ccc(O)cc1` [Peptide 9] are 20.4 ± 0.2 min and above 400 µg/mL. For the compound `N=C(N)NCCC[C@@H](CC(N)=O)NC(=O)[C@H]1CCCC[C@@H]1NC(=O)[C@H]1CCCC[C@@H]1NC(=O)C[C@H](CCCNC(=N)N)NC(=O)[C@H]1CCCC[C@@H]1NC(=O)[C@H]1CCCC[C@@H]1NC(=O)C[C@H](CCCNC(=N)N)NC(=O)[C@H]1CCCC[C@@H]1NC(=O)[C@H]1CCCC[C@@H]1N` [Peptide 7], the “Hydrophobicity” value in data set [1] was determined as 23.8 ± 0.1 min. The “MIC, Biofilm Formation (C. albicans)” value in data set [2] was determined as 16 µg/mL.

In the case of `C[C@@H](CC(=O)N[C@@H](CCCCN)CC(N)=O)NC(=O)[C@H]1CCCC[C@@H]1NC(=O)C[C@H](CCCCN)NC(=O)C[C@H](C)NC(=O)[C@H]1CCCC[C@@H]1NC(=O)C[C@H](CCCCN)NC(=O)C[C@H](C)NC(=O)[C@H]1CCCC[C@@H]1N` [Peptide 1], the “Hydrophobicity” value in data set [1] came to 19.3 ± 0.1 min.
